This note sets out measurements from ChEMBL document CHEMBL4000189, “Novel reversible methionine aminopeptidase-2 (MetAP-2) inhibitors based on purine and related bicyclic templates” (Bioorg Med Chem Lett, 2017).

Data set [1] in a line: Thermodynamic solubility of the compound. To be noted: read-out: Therm_solubility. The data set is classed as physicochemical.
The nature of data set [2]: Permeability in human Caco2 cells. The class given is ADME, cell-based. To be noted: Caco-2, read-out: permeability.
For data set [3], the target named is Methionine aminopeptidase 2 (Homo sapiens, UniProt P50579). Kind of data set: Inhibition of recombinant human N-terminal His tagged MetAP-2 using tripeptide Met-Ala-Ser as substrate preincubated for 15 mins followed by substrate addition measured after 45 mins by L-amino acid oxidase enzyme coupled assay.

In brackets after ≈: the same amount, converted by molar mass.

Sequence of Methionine aminopeptidase 2 (P50579 whole entry): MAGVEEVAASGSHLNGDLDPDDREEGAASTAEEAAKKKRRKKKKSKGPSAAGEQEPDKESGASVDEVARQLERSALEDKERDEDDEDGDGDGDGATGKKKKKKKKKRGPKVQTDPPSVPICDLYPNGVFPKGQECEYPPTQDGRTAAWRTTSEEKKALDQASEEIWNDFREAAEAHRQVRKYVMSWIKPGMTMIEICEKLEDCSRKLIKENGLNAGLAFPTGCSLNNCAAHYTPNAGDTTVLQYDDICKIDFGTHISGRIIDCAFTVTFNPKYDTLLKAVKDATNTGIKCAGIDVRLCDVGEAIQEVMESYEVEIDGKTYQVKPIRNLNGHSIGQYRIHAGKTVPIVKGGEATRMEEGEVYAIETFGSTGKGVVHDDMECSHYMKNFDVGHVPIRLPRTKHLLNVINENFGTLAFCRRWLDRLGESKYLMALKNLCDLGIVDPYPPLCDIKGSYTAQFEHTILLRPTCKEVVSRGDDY

Regarding `c1ccc2c(OC[C@H]3CCCN3c3ccnc4ncnn34)cncc2c1`, in data set [1], the solubility thermodynamic turned out to be 171 µg/mL (≈ 494 µM). Besides, the Papp in data set [2] came to 21 ×10⁻⁶ cm/s.

In the case of `Fc1cccc(OC[C@H]2CCCN2c2ncnc3[nH]ccc23)c1`, the IC50 in data set [3] is above 50 µM.

On to `Clc1ccccc1OC[C@H]1CCCN1c1ncnc2ncccc12`, for which the IC50 in data set [3] is above 50 µM.
